Data on one substance can be found in PMC4809600, “The Influence of Chronic Wound Extracts on Inflammatory Cytokine and Histatin Stability” (PLoS ONE, 2016).

The subject of the assay is dermal fibroblasts. Briefly: Fibroblast wound healing scratch assay (migration). The format is cell-based, human. The following applies: serum-free medium, histatins 5 μM, rhIL-6 125 ng/ml, rhCXCL8 250 ng/ml, (E0-E96)/(U0-U96), unexposed = 1; for Migration of dermal fibroblasts in scratch assay, 8 h exposure: 8 h exposure then 88 h without, read at 96 h; for Migration of dermal fibroblasts in scratch assay, 96 h exposure: continuous 96 h exposure. On the procedure:
Dermal fibroblasts were isolated from healthy human abdominal skin from patients undergoing corrective abdominal plastic surgery. After removal of all adipose tissue, the skin was washed in PBS and incubated overnight on dispase II (Roche, Mannheim, Germany) at 4°C. The next day, epidermis was removed and discarded and the dermis was incubated in collagenase type II (Gibco, Life Technologies, Grand Island, USA)/dispase II in Hanks balanced salt solution (HBSS) (Gibco) at 37°C for 2–3 h. Fibroblast medium consisting of DMEM (Lonza, Verviers, Belgium) containing 1% ultroserG (UG) (Biosepra, Cergy-Saint-Christopher, France) and 1% penicillin-streptomycin (P/S) (Gibco) was added and the solution was passed through an 100 μm and 40 μm cell strainer (Becton Dickinson Falcon, Erembodegem, Belgium). A single cell suspension was seeded at ± 3.5 x 10^4 cells cm^2 and further cultured in fibroblast medium. Medium was changed twice a week and cultures were passaged when 90% confluent using 0.5mM EDTA/0.05% trypsin (Gibco). The cells were maintained at 37°C in a humidified atmosphere containing 5% CO2 and used for experiments at passage 3.
A wound healing scratch assay was performed to determine the effect of histatins, rhIL-6 and rhCXCL8 on fibroblast migration. Confluent monolayers of fibroblasts in a 48-well plate (Costar, Corning Incorporated, New York, USA) were incubated with serum-free medium (DMEM containing 1% P/S and 0.1% bovine serum albumin (Sigma-Aldrich)) for 96 h to ensure minimum spontaneous migration. Next, a scratch was drawn with a disposable plastic pipette tip. Cultures were exposed to Hst1, cHst1, Hst2 and mad-Hst1 (all used at a concentration of 5μM), rhIL-6 (125 ng/ml), rhCXCL8 (250 ng/ml) and vehicle (H2O) in serum free medium. Two experimental set-ups were studied: i) cells were exposed only during the first 8 h to histatins and cytokines and then transferred to vehicle supplemented medium for an additional 88 h; or ii) cells were exposed to histatins and cytokines during the entire 96 h study period. Phase contrast micrographs were taken directly after drawing the scratch and after four days (96 h) of exposure. Data were analyzed using an image processing algorithm that has been described in detail in our previous work. The area of the scratch covered by migrating fibroblasts was determined using the following equation: (E0-E96)/(U0-U96), in which: E = exposure to a condition (IL-6, CXCL8 and histatins); U = unexposed (serum-free medium); E0 and U0 = area of the scratch at T = 0 h; E96 and U96 = area of the scratch (not covered with cells) after 96 h. In this way, in each exposed group (IL-6, CXCL8, histatins) the resurfaced area at 96 h is compared to its own 0 h time point and then set relative to the unexposed group (serum-free medium).

Where [1] appears, read: experiment 1, average of four replicates.
Setting [2] is: experiment 2, average of four replicates.
The mark [3] stands for this setting: experiment 3, average of four replicates.

With “cyclo(DNLPETGGDSHEKRHHGYRRKFHEKHHSHREFPFYGDYGSNYLY) [cHst1]”, the “Migration of dermal fibroblasts in scratch assay, 8 h exposure” value is 1.6 under setting [1], 1.24 under setting [2] and 1.53 under setting [3]. The “Migration of dermal fibroblasts in scratch assay, 96 h exposure” value is 1.46 under setting [1], 1.26 under setting [2] and 1.33 under setting [3].
